In patent US20180193294A1, “Dehydroabietic acid (DHAA) derivatives for use as ion channel openers” (priority 2015, published 2018):
Entries after “also recorded” stand apart in the source; their conditions may differ.

Key:
[1] = system: dorsal root ganglion (DRG) neurons; assay: Resting membrane potential of DRG neurons, whole-cell current clamp; type: cell-based, mice; details: 10 μM, pH 7.4, 120 s application
Experimental: All animal experiments were approved by the local Animal Care and Use Committee and followed international guidelines. Five female 7-12 week-old C57BL/6 mice (Scanbur) were used for this study. The mice were anaesthetized with isoflurane and decapitated. Dorsal root ganglia (DRG) were dissected from all spinal levels and enzymatically digested with collagenase (250 CDU/ml) for 15 min, and then trypsin (1 mg/ml) was added for another 30 min. The ganglia were centrifuged and resuspended in Leibovitz L-15 media with glutamine, supplemented with 10% fetal calf serum, 38 mM glucose, 24 mM NaHCO3 and penicillin/streptomycin. The ganglia were triturated and the DRG neurons plated on poly-D-lysine coated plastic coverslips. The neurons were cultured at 37° C. with 5% CO2 for 2-3 days before the electrophysiological recordings.
All manual electrophysiological recordings were performed at room temperature (20-23° C.), using a GeneClamp 500B amplifier (for oocytes) or a Axopatch 200B amplifier (for manual patch clamp of CHO—K1 cells and DRG neurons) and a Digidata 1440A digitizer and pClamp 10 software (all from Molecular Devices, Inc., Sunnyvale, Calif., USA). Compounds were dissolved to 100 mM in 99.5% EtOH and stored at −20° C. Compounds were diluted in extracellular solution to the desired test concentration.
CHO—K1 Cells were plated on coverslips 2 h before the manual electrophysiological recordings. Coverslips with CHO—K1 cells or DRG neurons were placed in a recording chamber and perfused with extracellular solution by a gravity-fed perfusion system. Substances were applied by a pressurized, automated OctaFlow perfusion system (ALA Scientific Instruments). The signals were sampled at 5-20 kHz after low-pass filtering at 2-5 kHz. For CHO—K1 cells the intracellular solution contained (in mM): 120 K-gluconate, 10 KCl, 5 EGTA, 10 HEPES, 4 Mg-ATP, 0.3 Na-GTP, pH 7.3; the extracellular solution contained (in mM): 135 NaCl, 4 KCl, 10 HEPES, 1 MgCl2, 1.8 CaCl2, 10 glucose, pH 7.4. Currents were evoked in CHO—K1 cells in whole-cell voltage-clamp mode from a holding potential of −80 mV by 100-ms long, 10-mV steps ranging from −80 to +80 mV.
For DRG neurons the intracellular solution contained (in mM): 120 K-gluconate, 10 KCl, 1 EGTA, 10 HEPES, 4 Mg-ATP, 0.3 Na-GTP, pH 7.3; the extracellular solution contained (in mM): 144 NaCl, 2.5 KCl, 10 HEPES, 0.5 MgCl2, 2 CaCl2, 10 glucose, pH 7.4. A liquid-junction potential of approximately −14 mV was corrected for. […] Small and medium sized DRG neurons were selected for whole-cell current-clamp recording. 10 μM of the compounds were applied for 120 s to study the effect on the resting membrane potential, and for 45-120 s to study the effects on evoked action potentials. To evoke action potentials 800-ms depolarizing pulses
The compound effect on the resting membrane potential Vm was determined by subtracting the control pre-compound Vm from the Vm at the end of the 120 s application of test compound.

3R Shaker K channel = 3R Shaker K channel (Drosophila melanogaster, UniProt P08510, A359R/M356R); assay: physchem; type: cell-based; details: for G(V) shift: Table 1; for Effects on K channel Mean ± SEM: Table 2, K channel expressed in Xenopus oocytes
How it was run: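 Two-electrode voltage clamp at 20-23° C. in oocytes (also CHO-K1 stable line, manual patch clamp) expressing Shaker H4 lacking N-type inactivation; 1K extracellular solution, pH 7.4, holding −80 mV, 100-ms 5-mV steps up to +70 mV. Compound-induced G(V) shift taken at 10% of control Gmax (oocytes) or as V1/2 difference (CHO-K1).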

HL-1 cells = assay: Membrane potential and firing of spontaneously beating HL-1 cells, whole-cell current clamp; type: cell-based; details: 10 uM
Experimental: All conventional chemicals were purchased from Sigma-Aldrich (Stockholm, Sweden). The DHAA derivatives were diluted in ethanol in a 100 mM stock solution. The stock solutions were stored at −20 t for further use.
The cell culture was done according to a previous study (Claycomb et al., Proceedings of the National Academy of Sciences of the United States of America 1998; 95:2979-2984). In brief, cells were grown on gelating fibronectin coated T75 flasks. They were maintained in Claycomb Medium which was supplemented with 10% fetal bovine serum, 2 mM L-glutamine, 0.1 mM noradrenaline, and 100 U/ml, 100 μg/ml penicillin-streptomycin. Enzymatic dissociation with 0.05% trypsin-EDTA was done after full confluence. Isolated cells were plated on fibronectin-gelatin coated plastic coverslips and used for recording.
Whole-cell current-clamp recordings were done on confluent cells at 35±1° C., using an Axopatch 200B amplifier (Molecular Devices, Sunnyvale, Calif.). Patch pipettes were fabricated from borosilicate capillary glass on a vertical pipette puller and had resistances of 3-5 MO. Data were stored on a computer through Digidata 1440A interface (Molecular Devices), and was analyzed with pCLAMP software (version 10.1, Molecular Devices). The bath solution contained the following (in mM): 140 NaCl, 5.4 KCl, 1 MgCl2, 1.8 CaCl2, 10 HEPES, and 10 glucose (pH adjusted to 7.4 with NaOH). The micropipettes were filled with a solution containing (in mM): 130 K-gluconate, 9 KCl, 8 NaCl, 1 MgCl2, 10 EGTA, 10 HEPES, and 3 Na2ATP (pH adjusted to 7.3 with KOH).

[2] = 100 μM, pH 7.4, Xenopus oocytes

3R Shaker K channel, sequence (P08510 whole entry M356R/A359R): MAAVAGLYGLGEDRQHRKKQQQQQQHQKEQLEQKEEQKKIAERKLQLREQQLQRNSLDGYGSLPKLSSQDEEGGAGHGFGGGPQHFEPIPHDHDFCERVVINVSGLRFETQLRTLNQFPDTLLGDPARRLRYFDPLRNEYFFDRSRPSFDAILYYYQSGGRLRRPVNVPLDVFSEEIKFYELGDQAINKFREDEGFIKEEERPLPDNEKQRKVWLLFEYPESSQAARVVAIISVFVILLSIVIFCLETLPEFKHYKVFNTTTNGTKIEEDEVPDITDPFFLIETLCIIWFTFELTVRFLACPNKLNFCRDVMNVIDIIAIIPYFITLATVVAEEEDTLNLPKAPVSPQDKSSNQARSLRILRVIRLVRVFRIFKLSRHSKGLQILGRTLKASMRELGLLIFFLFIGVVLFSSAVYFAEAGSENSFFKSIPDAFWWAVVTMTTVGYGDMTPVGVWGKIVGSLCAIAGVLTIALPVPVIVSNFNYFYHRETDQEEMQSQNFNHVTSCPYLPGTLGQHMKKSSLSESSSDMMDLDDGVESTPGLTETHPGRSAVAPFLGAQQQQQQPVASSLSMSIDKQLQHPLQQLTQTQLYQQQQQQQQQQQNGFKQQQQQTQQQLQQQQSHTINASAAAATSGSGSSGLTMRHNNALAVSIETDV

| SMILES | shift of the resting membrane potential (ΔVm) [1] | G(V) shift (3R Shaker K channel; [2]) | Effects on HL-1 cells Mean (membrane potential) (HL-1 cells) | Effects on K channel Mean ± SEM (3R Shaker K channel) | effect on firing frequency of HL-1 cells (HL-1 cells) | effect on membrane potential of HL-1 cells (HL-1 cells) | compound-induced G(V) shift (mean±SEM) (3R Shaker K channel; [2]) |
| --- | --- | --- | --- | --- | --- | --- | --- |
| CC(C)c1cc2c(cc1Cl)[C@@]1(C)CCC[C@@](C)(C(=O)O)C1CC2 (stereo partly drawn) [Wu13, (1R,4aS)-6-chloro-7-isopropyl-1,4a-dimethyl-1,2,3,4,4a,9,10,10a-octahydrophenanthrene-1-carboxylic acid] | most potent compounds on the DRG neurons | −15.8 mV |  |  |  |  |  |
| C=CCO/N=C1\CC2[C@](C)(C(=O)O)CCC[C@]2(C)c2cc(Cl)c(C(C)C)cc21 (stereo partly drawn) [Wu23, (1R,4aS,E)-9-((allyloxy)imino)-6-chloro-7-isopropyl-1,4a-dimethyl-1,2,3,4,4a,9,10,10a-octahydrophenanthrene-1-carboxylic acid] | intermediately potent hyperpolarizers | −26.7 mV |  |  |  |  |  |
| CC(C)c1ccc2c(c1Br)CCC1[C@](C)(C(=O)O)CCC[C@]21C (stereo partly drawn) [Wu26, (1R,4aS)-8-bromo-7-isopropyl-1,4a-dimethyl-1,2,3,4,4a,9,10,10a-octahydrophenanthrene-1-carboxylic acid] |  | −21.8 mV | −4.7 mV | −21.8 ± 0.8 mV |  |  |  |
| CO/N=C1\CC2[C@](C)(C(=O)O)CCC[C@]2(C)c2cc(Cl)c(C(C)C)cc21 (stereo partly drawn) [Wu69, (1R,4aS,E)-6-chloro-7-isopropyl-9-methoxyimino-1,4a-dimethyl-1,2,3,4,4a,9,10,10a-octahydrophenanthrene-1-carboxylic acid] |  | −28.1 mV | −9.3 mV | −28.1 ± 1.7 mV | reduced the frequency; also recorded: frequency is reduced | hyperpolarized the membrane potential; also recorded: interspike membrane potential is made more negative; also recorded: most potent substance on the HL-1 cells | one of the most potent substances on the Shaker K 3R channel |
| CO/N=C1\CC2[C@](C)(C(=O)O)CCC[C@]2(C)c2ccc(C(C)C)c(Br)c21 (stereo partly drawn) [Wu74, (1R,4aS,E)-8-bromo-7-isopropyl-9-(methoxyimino)-1,4a-dimethyl-1,2,3,4,4a,9,10,10a-octahydrophenanthrene-1-carboxylic acid] | intermediately potent hyperpolarizers | −14.7 mV |  |  |  |  |  |
